# Source: patent US8871680B2, “Herbicidal compositions comprising 4-amino-3-chloro-5-fluoro-6-(4-chloro-2-fluoro-3-methoxyphenyl) pyridine-2-carboxylic acid or a derivative thereof and a di-methoxy-pyrimidine and derivatives thereof” (Dow AgroSciences LLC, priority 2012, dated 2014)
# What was measured:
# DIGSA = test: Postemergence foliar-applied weed control, direct seeded rice (greenhouse); type: in vivo, Digitaria sanguinalis (L.) Scop.
# Description: (§1) Seeds or nutlets of the desired test plant species were planted in a soil matrix prepared by mixing a loam or sandy loam soil (e.g., 28.6 percent silt, 18.8 percent clay, and 52.6 percent sand, with a pH of about 5.8 and an organic matter content of about 1.8 percent) and calcareous grit in an 80 to 20 ratio. The soil matrix was contained in plastic pots with a volume of 1 quart and a surface area of 83.6 square centimeters (cm^2). When required to ensure good germination and healthy plants, a fungicide treatment and/or other chemical or physical treatment was applied. The plants were grown for 8-22 days in a greenhouse with an approximate 14 hr photoperiod which was maintained at about 29° C. during the day and 26° C. during the night. Nutrients (Peters Excel® 15-5-15 5-Ca 2-Mg and iron chelate) were applied in the irrigation solution as needed and water was added on a regular basis. Supplemental lighting was provided with overhead metal halide 1000-Watt lamps as necessary. The plants were employed for testing when they reached the first through fourth true leaf stage.
# (§2) Treatments consisted of the acid or esters of 4-amino-3-chloro-5-fluoro-6-(4-chloro-2-fluoro-3-methoxy-phenyl)pyridine-2-carboxylic acid (Compound A), each formulated as an SC (suspension concentrate), and various herbicidal components alone and in combination. Forms of compound A were applied on an acid equivalent basis.
# (§3) Other herbicidal components were applied on an active ingredient basis and included the dimethoxy-pyrimidine acid acetolactate synthase (ALS)-inhibiting herbicides bispyribac-sodium formulated as Regiment® 80WP, pyribenzoxim (technical grade material), pyriminobac-methyl formulated as Hie-Clean® 1.2% GR dissolved in water, and pyriftalid (technical grade material).
# (§4) Treatment requirements were calculated based upon the rates being tested, the concentration of active ingredient or acid equivalent in the formulation, and a 12 mL application volume at a rate of 187 L/ha.
# (§5) For treatments comprised of formulated compounds, measured amounts of compounds were placed individually in 25 mL glass vials and diluted in a volume of 1.25% (v/v) Agri-Dex® crop oil concentrated to obtain 12× stock solutions. […] Application solutions were prepared by adding an appropriate amount of each stock solution (e.g., 1 mL) and diluted to the appropriate final concentrations with the addition of 10 mL of an aqueous mixture of 1.25% (v/v) crop oil concentrate so that the final spray solutions contained 1.25+/−0.005% (v/v) crop oil concentrate.
# For treatments comprised of technical compounds, weighed amounts can be placed individually in 25 mL glass vials and dissolved in a volume of 97:3 v/v acetone/DMSO to obtain 12× stock solutions. […] Application solutions can be prepared by adding an appropriate amount of each stock solution (e.g., 1 mL) and diluted to the appropriate final concentrations with the addition of 10 mL of an aqueous mixture of 1.5% (v/v) crop oil concentrate so that the final spray solutions contain 1.25% (v/v) crop oil concentrate. […]
# (§6) For treatments comprised of formulated and technical compounds, weighed amounts of the technical materials were placed individually in 25 mL glass vials and dissolved in a volume of 97:3 v/v acetone/DMSO to obtain 12× stock solutions, and measured amounts of the formulated compounds were placed individually in 25 mL glass vials and diluted in a volume of 1.5% (v/v) crop oil concentrate or water to obtain 12× stock solutions. […]
# IPOHE = test: as above; type: in vivo, Ipomoea hederacea Jacq.
# Description: as §1, §2, §3, §4, §5
# For treatments comprised of technical compounds, weighed amounts can be placed individually in 25 mL glass vials and dissolved in a volume of 97:3 v/v acetone/DMSO to obtain 12× stock solutions. […] Application solutions can be prepared by adding an appropriate amount of each stock solution (e.g., 1 mL) and diluted to the appropriate final concentrations with the addition of 10 mL of an aqueous mixture of 1.5% (v/v) crop oil concentrate so that the final spray solutions contain 1.25% (v/v) crop oil concentrate. When technical materials are used, the concentrated stock solutions can be added to the spray solutions so that the final acetone and DMSO concentrations of the application solutions are 16.2% and 0.5%, respectively.
# as §6
# BRAPP = test: as above; type: in vivo, Brachiaria platyphylla (Griseb.) Nash; settings: 4.38 gae/ha
# Description: as §1, with “stage. […]” for “stage.”
# as §4
# For treatments comprised of formulated compounds, measured amounts of compounds were placed individually in 25 mL glass vials and diluted in a volume of 1.25% (v/v) Agri-Dex® crop oil concentrated to obtain 12× stock solutions. […]
# as §6
# ECHCG = test: In-water applied weed control, transplanted paddy rice (greenhouse); type: in vivo, Echinochloa crusgalli (L.) Beauv.
# Experimental: (§7) Weed seeds or nutlets of the desired test plant species were planted in puddled soil (mud) prepared by mixing a shredded, non-sterilized mineral soil (50.5 percent silt, 25.5 percent clay, and 24 percent sand, with a pH of about 7.6 and an organic matter content of about 2.9 percent) and water at a 1:1 volumetric ratio. The prepared mud was dispensed in 365 mL aliquots into 16-ounce (oz.) non-perforated plastic pots with a surface area of 86.59 square centimeters (cm^2) leaving a headspace of 3 centimeters (cm) in each pot. Mud was allowed to dry overnight prior to planting or transplanting. Rice seeds were planted in Sun Gro MetroMix® 306 planting mixture, which typically has a pH of 6.0 to 6.8 and an organic matter content of about 30 percent, in plastic plug trays. Seedlings at the second or third leaf stage of growth were transplanted into 860 mL of mud contained in 32-oz. non-perforated plastic pots with a surface area of 86.59 cm^2 4 days prior to herbicide application. The paddy was created by filling the headspace of the pots with 2.5 to 3 cm of water. When required to ensure good germination and healthy plants, a fungicide treatment and/or other chemical or physical treatment was applied. The plants were grown for 4-22 days in a greenhouse with an approximate 14 hr photoperiod which was maintained at about 29′C during the day and 26° C. during the night. Nutrients were added as Osmocote® (19:6:12, N:P:K+minor nutrients) at 2 g per 16-oz. pot and 4 g per 32-oz. pot. Water was added on a regular basis to maintain the paddy flood, and supplemental lighting was provided with overhead metal halide 1000-Watt lamps as necessary. The plants were employed for testing when they reached the first through fourth true leaf stage.
# (§8) Treatments consisted of the acid or esters of 4-amino-3-chloro-5-fluoro-6-(4-chloro-2-fluoro-3-methoxy-phenyl)pyridine-2-carboxylic acid (compound A) each formulated as an SC and various herbicidal components alone and in combination. Forms of compound A were applied on an acid equivalent basis.
# (§9) Other herbicidal components were applied on an active ingredient basis and included the dimethoxy-pyrimidine acid acetolactate synthase (ALS)-inhibiting herbicides bispyribac-sodium formulated as Regiment® 80 WP, pyriminobac-methyl formulated as Hie Clean®, and pyriftalid (technical grade material).
# (§10) Treatment requirements for each compound or herbicidal component were calculated based upon the rates being tested, the concentration of active ingredient or acid equivalent in the formulation, an application volume of 2 mL per component per pot, and an application area of 86.59 cm^2 per pot.
# (§11) For formulated compounds, a measured amount was placed in an individual 100 or 200 mL glass vial and was dissolved in a volume of 1.25% (v/v) Agri-Dex® crop oil concentrate to obtain application solutions.
# (§12) For technical grade compounds, a weighed amount was placed in an individual 100 to 200 mL glass vial and was dissolved in a volume of acetone to obtain concentrated stock solutions. […] The concentrated stock solutions obtained were diluted with an equivalent volume of an aqueous mixture containing 2.5% (v/v) crop oil concentrate so that the final application solutions contained 1.25% (v/v) crop oil concentrate.
# (§13) Applications were made by injecting with a pipetter appropriate amounts of the application solutions, individually and sequentially, into the aqueous layer of the paddy.
# (§14) Control plants were treated in the same manner with the solvent blank. Applications were made so that all treated plant material received the same concentrations of acetone and crop oil concentrate.
# (§15) The treated plants and control plants were placed in a greenhouse as described above and water was added as needed to maintain a paddy flood. […]
# ECHOR = test: as above; type: in vivo, Echinochloa oryzoides (Ard.) Fritsch; settings: 42.2 gae/ha
# Experimental: as §7, §8, §9, §10, §11, §12, §13
# (§16) Control plants were treated in the same manner with the solvent blank. […]
# LEFCH = test: as above; type: in vivo, Leptochloa chinensis (L.) Nees
# Experimental: as §7, §8, §9, §10, §11, §12, §13, §16
# SCPMA = test: as above; type: in vivo, Bolboschoenus maritimus (L.) Palla
# Experimental: as §7, §8, §9, §10, §11, §12, §13, §14, §15
# CYPRO = test: as above; type: in vivo, Cyperus rotundus L.
# Experimental: as §7, §8, §9, §10, §11, §12, §13, §14, §15
# ECHCO = test: as above; type: in vivo, Echinochloa colona (L.) Link
# Experimental: as §7, with “Water was added on a regular basis to maintain the paddy flood, and supplemental lighting was provided with overhead metal halide 1000-Watt lamps as necessary. The plants were employed for testing when they reached the first through fourth true leaf stage.” left out
# as §10
# For formulated compounds, a measured amount was placed in an individual 100 or 200 mL glass vial and was dissolved in a volume of 1.25% (v/v) Agri-Dex® crop oil concentrate to obtain application solutions. […]
# FIMMI = test: as above; type: in vivo, Fimbristylis miliacea (L.) Vahl
# Experimental: as §7, §8, §9, §10, §11, §12, §13, §14, §15
smiles,measurement,setting,value
"COc1c(Cl)ccc(-c2nc(C(=O)O)c(Cl)c(N)c2F)c1F [Compound A Acid, 4-amino-3-chloro-6-(4-chloro-2-fluoro-3-methoxyphenyl)-5-fluoropyridine-2-carboxylic acid]",Visual Weed Control (%)-24 DAA DIGSA Obs,DIGSA; 4.38 gae/ha,20%
same,Visual Weed Control (%)-24 DAA DIGSA Obs,DIGSA; 8.75 gae/ha,25%
same,Visual Weed Control (%)-24 DAA DIGSA Obs,DIGSA; 17.5 gae/ha,25%
same,Visual Weed Control (%)-24 DAA IPOHE Obs,IPOHE; 4.38 gae/ha,10%
same,Visual Weed Control (%)-24 DAA IPOHE Obs,IPOHE; 8.75 gae/ha,10%
same,Visual Weed Control (%)-24 DAA IPOHE Obs,IPOHE; 17.5 gae/ha,30%
same,Visual Weed Control (%)-24 DAA IPOHE Obs,"IPOHE; 17.5 gae/ha, second part of Table 3",25%
same,Visual Weed Control (%)-24 DAA IPOHE Obs,"IPOHE; 35 gae/ha, second part of Table 3",48%
same,Visual Weed Control (%)-22 DAA BRAPP Obs,BRAPP,45%
same,Visual Weed Control (%) - 20 DAA ECHCG Obs,ECHCG; 8.75 gae/ha,0%
same,Visual Weed Control (%) - 20 DAA ECHCG Obs,ECHCG; 17.5 gae/ha,35%
same,Visual Weed Control (%) - 20 DAA ECHCG Obs,ECHCG; 35 gae/ha,55%
same,Visual Weed Control (%) - 20 DAA ECHCG Obs,ECHCG; 42.2 gae/ha,18%
same,Visual Weed Control (%)-20 DAA ECHOR Obs,ECHOR,18%
same,Visual Weed Control (%)-21 DAA LEFCH Obs,LEFCH; 8.75 gae/ha,0%
same,Visual Weed Control (%)-21 DAA LEFCH Obs,LEFCH; 17.5 gae/ha,0%
same,Visual Weed Control (%)-20 DAA LEFCH Obs,LEFCH; 42.2 gae/ha,15%
same,Visual Weed Control (%)-21 DAA SCPMA Obs,SCPMA; 8.75 gae/ha,0%
same,Visual Weed Control (%)-21 DAA SCPMA Obs,SCPMA; 17.5 gae/ha,0%
same,Visual Weed Control (%)-20 DAA SCPMA Obs,SCPMA; 35 gae/ha,0%
same,Visual Weed Control (%)-21 DAA SCPMA Obs,SCPMA; 35 gae/ha,0%
same,Visual Weed Control (%)-20 DAA SCPMA Obs,SCPMA; 42.2 gae/ha,0%
same,Visual Weed Control (%)-20 DAA SCPMA Obs,SCPMA; 70 gae/ha,0%
same,Visual Weed Control (%)-21 DAA CYPRO Obs,CYPRO; 8.75 gae/ha,30%
same,Visual Weed Control (%)-21 DAA CYPRO Obs,CYPRO; 17.5 gae/ha,40%
same,Visual Weed Control (%)-21 DAA CYPRO Obs,CYPRO; 35 gae/ha,70%
same,Visual Weed Control (%)-21 DAA ECHCO Obs,ECHCO; 8.75 gae/ha,0%
same,Visual Weed Control (%)-21 DAA ECHCO Obs,ECHCO; 17.5 gae/ha,20%
same,Visual Weed Control (%)-21 DAA FIMMI Obs,FIMMI; 8.75 gae/ha,50%
same,Visual Weed Control (%)-21 DAA FIMMI Obs,FIMMI; 17.5 gae/ha,85%
same,Visual Weed Control (%)-21 DAA FIMMI Obs,FIMMI; 35 gae/ha,85%
